Where a SMILES comes first, the peptide text is derived from it. [ ]: non-standard residue; d: D form. Thr(SO3H) = C[C@@H](OS(=O)(=O)O)[C@H](N)C(=O)O; sY = N[C@@H](Cc1ccc(OS(=O)(=O)O)cc1)C(=O)O; NMeF = CN[C@@H](Cc1ccccc1)C(=O)O

The target in the data set is T1, Rat kidney metalloendopeptidase (Rattus norvegicus, UniProt P07861).
T1 construct: from tissue; host or cells: rat kidney
T1 sequence (P07861 1-750): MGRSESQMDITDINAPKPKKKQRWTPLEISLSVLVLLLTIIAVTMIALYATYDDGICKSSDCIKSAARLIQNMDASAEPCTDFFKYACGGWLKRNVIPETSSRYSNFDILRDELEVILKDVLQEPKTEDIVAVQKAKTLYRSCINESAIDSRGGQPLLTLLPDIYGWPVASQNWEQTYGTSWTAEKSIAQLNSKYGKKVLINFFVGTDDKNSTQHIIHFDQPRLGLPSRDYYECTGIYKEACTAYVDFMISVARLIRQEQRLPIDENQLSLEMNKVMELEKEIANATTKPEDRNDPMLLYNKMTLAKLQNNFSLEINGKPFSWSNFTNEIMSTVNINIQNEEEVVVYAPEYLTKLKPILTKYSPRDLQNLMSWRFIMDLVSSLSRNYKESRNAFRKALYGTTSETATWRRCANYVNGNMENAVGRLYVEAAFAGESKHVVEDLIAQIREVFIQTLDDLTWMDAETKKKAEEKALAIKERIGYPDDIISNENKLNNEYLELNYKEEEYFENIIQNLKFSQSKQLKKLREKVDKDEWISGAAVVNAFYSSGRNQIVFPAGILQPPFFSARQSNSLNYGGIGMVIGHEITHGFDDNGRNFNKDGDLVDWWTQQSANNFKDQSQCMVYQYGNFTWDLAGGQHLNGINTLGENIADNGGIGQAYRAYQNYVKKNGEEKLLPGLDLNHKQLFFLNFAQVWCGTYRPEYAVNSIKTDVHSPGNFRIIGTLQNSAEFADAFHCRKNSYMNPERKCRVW
The experiment in a line: Degradation by rat kidney metalloendopeptidase (HPLC). The class given is in vitro ADME. The settings on record: for % Degradation by Height: 37° C., pH 7.6. As to the method: Rat kidney metalloendopeptidase (0.01 μg) and 5 nmol of peptide were incubated in 2 μmol tris-HCl buffer (pH 7.6) and at 37° C. for varying periods of time. The degradation of the peptide was monitored by analytical HPLC on a 5 micron Adsorbosphere-ODS column with a 0-50% CH3 CN gradient in 0.1N potassium phosphate, pH 3.0, with UV detection at 210 nm. Rates are based on presumed production of Asp-Tyr(SO3 H)-Met-Gly for CCK-8 and the presumed production of Ac-Tyr(SO3 H)-Met-Gly for Example 2 and 3.

For the molecule `CSCC[C@H](NC(=O)[C@H](Cc1ccc(OS(=O)(=O)O)cc1)NC(C)=O)C(=O)NCC(=O)N[C@@H](Cc1c[nH]c2ccccc12)C(=O)N[C@@H](CCSC)C(=O)N[C@H](C(=O)N(C)[C@@H](Cc1ccccc1)C(N)=O)[C@@H](C)OS(=O)(=O)O` [Example 2, Ac-Tyr(SO3 H)-Met-Gly-Trp-Met-Thr(SO3 H)-N-methyl-Phe-NH2] (Ac-[sY]MGWM[Thr(SO3H)][NMeF]-NH2), the “% Degradation by Height” value was 0% (incubation 0 min), 19.4% (incubation 60 min), 30.3% (incubation 120 min) and 56.4% (incubation 240 min). Further, the “No. of Peaks (degradation products)” value (incubation 240 min) worked out at 2.
